Results: patent US20230416239A1, “COMPOUNDS AND METHODS FOR TREATING A CYTOKINE-MEDIATED DISEASE” (CONSERVATOIRE NATIONAL DES ARTS ET MÉTIERS, priority 2020, published 2023)

Key:
IL-13 = IL-13 (Homo sapiens, UniProt P35225); assay: Immunoassay binding test, IL-13; details: for IC50: IL-13 400 ng/ml, receptor 100 ng/ml, read-out: BINDING IL13 IC50
In short: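 Receptor-coated plates; compounds (100 to 0.78 μM final) preincubated 2 h at 37° C with fixed cytokine, then bound to receptor overnight at 4° C. Bound cytokine detected with biotinylated anti-cytokine antibody and avidin-HRP, OD 450 nm.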

TNFα = TNFα (Homo sapiens, UniProt P01375); assay: Immunoassay binding test, TNFa; details: compounds 100 to 0.78 μM; TNFα 10 ng/ml, receptor 100 ng/ml; read-out: BINDING TNF IC50
Chain of TNFα (P01375 77-233 limits assumed, species assumed): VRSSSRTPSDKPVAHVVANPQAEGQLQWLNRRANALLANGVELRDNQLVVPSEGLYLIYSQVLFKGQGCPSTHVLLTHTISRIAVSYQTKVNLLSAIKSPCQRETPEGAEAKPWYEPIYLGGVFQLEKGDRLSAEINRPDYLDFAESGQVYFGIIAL
In short: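 ELISA-type binding test: receptor-coated plates blocked with 2% BSA, then cytokine (six-point dilution series) preincubated 2 h at 37 °C and bound overnight at 4 °C. Detection used biotinylated anti-cytokine antibody and avidin-HRP, read as OD at 450 nm. For IL-6, IL-6Ra was present at 200 ng/ml final.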

IL-4 = target: T1, IL-4 (Homo sapiens, UniProt P05112); assay: Immunoassay binding test, IL-4; details: for IC50: IL-4 400 ng/ml, receptor 100 ng/ml, read-out: BINDING IL4 IC50
T1 sequence (P05112 25-153): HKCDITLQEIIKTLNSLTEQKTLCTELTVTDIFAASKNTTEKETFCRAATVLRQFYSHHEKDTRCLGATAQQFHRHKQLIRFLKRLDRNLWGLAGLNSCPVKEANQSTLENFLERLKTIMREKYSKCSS
In short: (§1)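 Detection used OD at 450 nm after biotinylated anti-cytokine antibody and avidin-HRP were applied to receptor-coated wells. Those wells had received, overnight at 4 °C, cytokine preincubated 2 h at 37 °C with compound at final 100 to 0.78 μM. IL-6 mixtures further contained IL-6Ra at 200 ng/ml final.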

IL-6 = IL-6 (Homo sapiens, UniProt P05231); assay: Immunoassay binding test, IL-6 (gp130 receptor, IL-6Ra present); details: IL-6Ra 200 ng/ml
Chain of IL-6 (P05231 30-212, species assumed): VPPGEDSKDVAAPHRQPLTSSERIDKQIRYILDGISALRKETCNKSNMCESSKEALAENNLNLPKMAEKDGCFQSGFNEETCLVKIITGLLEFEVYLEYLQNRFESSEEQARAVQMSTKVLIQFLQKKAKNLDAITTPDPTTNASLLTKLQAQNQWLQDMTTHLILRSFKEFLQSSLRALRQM
In short: as §1

TNFa/TNFRI interaction = TNFa/TNFRI interaction (Homo sapiens, UniProt P01375); assay: TNFa/TNFRI interaction displacement test; type: binding; details: for Displacement (%): compounds at 50 μM, human TNFRI 100 ng/ml; for Displacement EC50 TNFa in presence of compound: Difference: Compound EC50 minus SPD304 EC50;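 as to Displacement EC50 TNFa in presence of compound: Difference: SPD304 reference at 20 µM final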
Chain of TNFa/TNFRI interaction (P01375 77-233 limits assumed): as the sequence (P01375 77-233 limits assumed, species assumed) above
In short: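 Plates coated overnight at 4° C with human TNFRI (100 ng/ml) and blocked with 2% BSA, then test mixtures were incubated overnight at 4° C. Bound cytokine detected with biotinylated anti-cytokine antibody (2 h, 37° C) and avidin-HRP, read as OD at 450 nm.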

Chain of IL-13 (P35225 25-146, species assumed): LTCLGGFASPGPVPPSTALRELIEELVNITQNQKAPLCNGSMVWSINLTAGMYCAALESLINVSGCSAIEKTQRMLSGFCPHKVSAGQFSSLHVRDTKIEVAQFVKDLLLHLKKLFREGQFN

Structure (SMILES)	BINDING IL13 % Neutra at 100 μM (IL-13)	IC50 (IL-13)	IC50 (TNFα)	BINDING IL4 % Neutra at 100 μM (IL-4)	IC50 (IL-4)	BINDING IL6 % Neutra at 100 μM (IL-6)	Displacement (%) (TNFa/TNFRI interaction)	Displacement EC50 TNFa in presence of compound: Difference (TNFa/TNFRI interaction)
FC(F)(F)c1cccc(-n2cc(CN(CCNC3CCCCC3)Cc3cccnc3)c3ccccc32)c1 [Compound 30]	93.6%	> 50 µM	19.9 µM	97.3%	4 µM	16.8%	106%	
FC(F)(F)c1cccc(-n2cc(CN(CCCCNC3CCCCC3)Cc3ccncc3)c3ccccc32)c1 [Compound 22]	95.2%	> 50 µM	16.9 µM	98.4%	4.1 µM	-1.3%	120%	
CCCCN(CCOCCN(Cc1cccnc1F)Cc1cn(S(=O)(=O)c2ccccc2)c2ccccc12)C1CCCCC1 [Compound 99, N-butyl-N-(2-(2-(((2-fluoropyridin-3-yl)methyl)((1-(phenylsulfonyl)-1H-indol-3-yl)methyl)amino)ethoxy)ethyl)cyclohexanamine]	91.8%	> 50 µM	8.2 µM	87.4%	4.4 µM	0%	173%	
O=S(=O)(c1ccccc1)n1cc(CN(CCCCCNCc2cccnc2F)Cc2cccnc2F)c2ccccc21 [Compound 62]	67.9%	38.5 µM	26.8 µM	81.5%	7.8 µM	0%	105%	
CN(CCCCN(Cc1ccnc(F)c1)Cc1cn(S(=O)(=O)c2ccccc2)c2ccccc12)C1CCCCC1 [Compound 50, N1-cyclohexyl-N4-((2-fluoropyridin-4-yl)methyl)-N1-methyl-N4-((1-(phenylsulfonyl)-1H-indol-3-yl)methyl)butane-1,4-diamine]	90.3%	26.2 µM	7.2 µM	90.6%	6.3 µM	0%	138%	
CCCN(CCCCN(Cc1cccnc1F)Cc1cn(S(=O)(=O)c2ccccc2)c2ccccc12)C1CCCC1 [Compound 98]	90.2%	> 50 µM	9.9 µM	93.4%	6.2 µM	0%	127%	
O=S(=O)(NCCCCN(Cc1cccnc1F)Cc1cn(S(=O)(=O)c2ccccc2)c2ccccc12)N1CCOCC1 [Compound 82]	0%		> 50 µM	27.9%	> 100 µM	5%	18%	
O=S(=O)(c1ccccc1)n1cc(CN(CCCCNC2CCCCC2)Cc2cccnc2)c2ccccc21 [Compound 15]	94.8%	> 50 µM	8.1 µM	99%	6.3 µM	11.5%	167%	5.1 ng/mL

Continued, values first:

BINDING IL13 % Neutra at 100 μM (IL-13)	IC50 (IL-13)	IC50 (TNFα)	BINDING IL4 % Neutra at 100 μM (IL-4)	IC50 (IL-4)	BINDING IL6 % Neutra at 100 μM (IL-6)	Displacement (%) (TNFa/TNFRI interaction)	Displacement EC50 TNFa in presence of compound: Difference (TNFa/TNFRI interaction)	Structure (SMILES)
87.7%	> 50 µM	1.1 µM	97.9%	5 µM	20.7%	133%		CN(CCCCN(Cc1cccnc1)Cc1cn(S(=O)(=O)c2ccccc2)c2ccccc12)C1CCCCC1 [Compound 17]
97.1%	1.4 µM	19.9 µM	97.8%	3.3 µM	2%	183%	14.9 ng/mL	FC(F)(F)c1cccc(-n2cc(CN(Cc3ccccn3)CC3CCCN(C4CCCCC4)C3)c3ccccc32)c1 (centres unmarked) [Compound 2]
0%		> 50 µM	13.7%	> 100 µM	0%	35%		NS(=O)(=O)NCCCCN(Cc1cccnc1F)Cc1cn(S(=O)(=O)c2ccccc2)c2ccccc12 [Compound 77]
75.2%	> 50 µM	19 µM	95.8%	34.5 µM	0%	101%		CN(CCCCN(Cc1cccnc1F)Cc1cn(S(=O)(=O)c2ccccc2)c2ncccc12)C1CCCCC1 [Compound 94, N1-cyclohexyl-N4-((2-fluoropyridin-3-yl)methyl)-N1-methyl-N4-((1-(phenylsulfonyl)-1H-pyrrolo[2,3-b]pyridin-3-yl)methyl)butane-1,4-diamine]
58.8%	40.4 µM	9.6 µM	76.7%	9.1 µM	0%	165%		CCCN(CCOCCN(Cc1cccnc1F)Cc1cn(S(=O)(=O)c2ccccc2)c2ccccc12)C1CCCC1 [Compound 108, N-(2-(2-(((2-fluoropyridin-3-yl)methyl)((1-(phenylsulfonyl)-1H-indol-3-yl)methyl)amino)ethoxy)ethyl)-N-propylcyclopentanamine]
73.9%	> 50 µM	10.5 µM	94.6%	6.6 µM	0%	153%		CCCN(CCOCCN(Cc1cccnc1F)Cc1cn(S(=O)(=O)c2ccccc2)c2ccccc12)C1CCCCC1 [Compound 97, N-(2-(2-(((2-fluoropyridin-3-yl)methyl) ((1-(phenylsulfonyl)-1H-indol-3-yl)methyl)amino)ethoxy)ethyl)-N-propylcyclohexanamine]
92.1%	> 50 µM	9.7 µM	89.8%	8.1 µM	3%	208%		CN(CCCCN(Cc1cccnc1F)Cc1cn(S(=O)(=O)c2ccccc2)c2ccccc12)C1CCCC1 [Compound 72, N′-cyclopentyl-N^4-((2-fluoropyridin-3-yl)methyl)-N′-methyl-N^4-((1-(phenylsulfonyl)-1H-indol-3-yl)methyl)butane-1,4-diamine]
85.8%	> 50 µM	11.2 µM	92.0%	8.5 µM	0%	147%		O=S(=O)(c1ccccc1)n1cc(CN(CCCCNC2CCCCCCC2)Cc2cccnc2F)c2ccccc21 [Compound 75, N′-cyclooctyl-N^4-((2-fluoropyridin-3-yl)methyl)-N^4-((1-(phenylsulfonyl)-1H-indol-3-yl)methyl)butane-1,4-diamine]
32.1%	> 50 µM	11.5 µM	84.1%	14.6 µM	0%	132%		CCCN(CCOCCN(Cc1cccnc1F)Cc1cn(S(=O)(=O)c2ccccc2)c2ccccc12)C1CCCC1 [Compound 106]
